# Assay results reported in ChEMBL document CHEMBL4043168, “The design and SAR of a novel series of 2-aminopyridine based LRRK2 inhibitors” (Bioorg Med Chem Lett, 2017).
# Key:
# [1] = target: Calcium/calmodulin-dependent protein kinase type II subunit alpha (Homo sapiens) (UniProt Q9UQM7); test: Inhibition of CaMK2a labeling at conserved Lys2 (DLKPENLLLASK) in human PBMC at 1 uM
# [2] = target: Mitogen-activated protein kinase 3 (Homo sapiens) (UniProt P27361); test: Inhibition of Erk1 ATP binding site (DLKPSNLLINTTCDLK) in human PBMC at 1 uM
# [3] = target: T1, Interleukin-1 receptor-associated kinase 4 (Homo sapiens) (UniProt Q9NWZ3); test: Inhibition of IRAK4 conserved Lys1 (GYVNNTTVAVKK) in human PBMC at 1 uM
# T1 sequence (whole entry): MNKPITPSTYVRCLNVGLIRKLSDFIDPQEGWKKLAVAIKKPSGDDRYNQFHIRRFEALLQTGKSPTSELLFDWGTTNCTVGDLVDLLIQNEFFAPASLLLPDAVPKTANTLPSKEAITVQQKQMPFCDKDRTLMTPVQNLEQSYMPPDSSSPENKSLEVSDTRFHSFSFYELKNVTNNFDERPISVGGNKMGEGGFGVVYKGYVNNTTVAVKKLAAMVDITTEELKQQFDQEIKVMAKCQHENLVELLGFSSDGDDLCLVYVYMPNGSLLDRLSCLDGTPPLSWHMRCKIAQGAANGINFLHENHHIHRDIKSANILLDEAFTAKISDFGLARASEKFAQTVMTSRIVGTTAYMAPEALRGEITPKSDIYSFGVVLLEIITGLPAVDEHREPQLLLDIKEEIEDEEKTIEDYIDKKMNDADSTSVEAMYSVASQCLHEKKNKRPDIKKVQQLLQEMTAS
# [4] = target: Leucine-rich repeat serine/threonine-protein kinase 2 (Homo sapiens, UniProt Q5S007); test: Inhibition of LRRK2 conserved Lys2 (DLKPHNVLLFTLYPNAAIIAK) in human PBMC at 1 uM
# [5] = target: Serine/threonine-protein kinase Nek9 (Homo sapiens) (UniProt Q8TD19); test: Inhibition of NEK9 conserved Lys2 (DIKTLNIFLTK) in human PBMC at 1 uM
# [6] = target: Phosphatidylinositol 3-kinase catalytic subunit type 3 (Homo sapiens) (UniProt Q8NEB9); test: Inhibition of PIK3C3 ATP binding site (TEDGGKYPVIFKHGDDLR) in human PBMC at 1 uM
# [7] = target: Serine/threonine-protein kinase WNK4 (Homo sapiens) (UniProt Q96J92); test: Inhibition of Wnk4 activation Loop (IGDLGLATLKR) in human PBMC at 1 uM
# [8] = target: T1, Interleukin-1 receptor-associated kinase 4 (Homo sapiens); test: Inhibition of IRAK4 conserved Lys2 (DIKSANILLDEAFTAK) in human PBMC at 0.1 uM
# [9] = target: T2, Tyrosine-protein kinase JAK3 (Homo sapiens) (UniProt P52333); test: Inhibition of JAK3 domain2 activation Loop (IADFGLAKLLPLDKDYYVVR) in human PBMC at 0.1 uM
# T2 sequence (whole entry): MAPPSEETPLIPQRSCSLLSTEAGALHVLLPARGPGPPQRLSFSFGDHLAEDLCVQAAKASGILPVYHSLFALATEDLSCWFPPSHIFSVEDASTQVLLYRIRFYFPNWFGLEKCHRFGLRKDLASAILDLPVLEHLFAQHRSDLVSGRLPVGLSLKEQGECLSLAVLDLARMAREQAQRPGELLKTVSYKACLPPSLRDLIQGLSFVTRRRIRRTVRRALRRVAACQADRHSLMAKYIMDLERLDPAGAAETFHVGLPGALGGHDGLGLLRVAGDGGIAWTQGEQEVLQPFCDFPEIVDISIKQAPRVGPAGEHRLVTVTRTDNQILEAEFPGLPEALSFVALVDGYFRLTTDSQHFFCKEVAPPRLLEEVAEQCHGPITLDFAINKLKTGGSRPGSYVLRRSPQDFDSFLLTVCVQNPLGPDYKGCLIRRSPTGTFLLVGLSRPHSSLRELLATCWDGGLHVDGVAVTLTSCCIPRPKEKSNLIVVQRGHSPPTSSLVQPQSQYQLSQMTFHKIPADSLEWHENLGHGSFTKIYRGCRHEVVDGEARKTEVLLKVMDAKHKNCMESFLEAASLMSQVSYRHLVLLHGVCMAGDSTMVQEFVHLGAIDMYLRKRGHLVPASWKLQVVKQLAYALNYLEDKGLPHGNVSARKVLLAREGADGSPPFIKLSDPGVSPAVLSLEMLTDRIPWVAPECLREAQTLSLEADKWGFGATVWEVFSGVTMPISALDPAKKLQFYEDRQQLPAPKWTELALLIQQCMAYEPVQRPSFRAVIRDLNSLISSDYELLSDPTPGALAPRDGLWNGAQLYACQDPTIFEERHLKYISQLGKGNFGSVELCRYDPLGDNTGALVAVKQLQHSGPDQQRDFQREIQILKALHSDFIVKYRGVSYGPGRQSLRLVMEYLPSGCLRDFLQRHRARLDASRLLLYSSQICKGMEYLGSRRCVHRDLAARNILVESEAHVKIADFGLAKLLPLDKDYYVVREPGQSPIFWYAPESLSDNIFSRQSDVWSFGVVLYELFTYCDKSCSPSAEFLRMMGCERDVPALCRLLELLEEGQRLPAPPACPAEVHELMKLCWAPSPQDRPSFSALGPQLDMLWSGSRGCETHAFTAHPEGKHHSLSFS
# [10] = target: Serine/threonine-protein kinase Nek8 (Homo sapiens) (UniProt Q86SG6); test: Inhibition of NEK8 conserved Lys2 (DLKTQNILLDK) in human PBMC at 0.1 uM
# [11] = target: T3, STE20-related kinase adapter protein alpha (Homo sapiens) (UniProt Q7RTN6); test: Inhibition of STLK5 conserved Lys2 (SVKASHILISVDGK) in human PBMC at 0.1 uM
# T3 sequence (whole entry): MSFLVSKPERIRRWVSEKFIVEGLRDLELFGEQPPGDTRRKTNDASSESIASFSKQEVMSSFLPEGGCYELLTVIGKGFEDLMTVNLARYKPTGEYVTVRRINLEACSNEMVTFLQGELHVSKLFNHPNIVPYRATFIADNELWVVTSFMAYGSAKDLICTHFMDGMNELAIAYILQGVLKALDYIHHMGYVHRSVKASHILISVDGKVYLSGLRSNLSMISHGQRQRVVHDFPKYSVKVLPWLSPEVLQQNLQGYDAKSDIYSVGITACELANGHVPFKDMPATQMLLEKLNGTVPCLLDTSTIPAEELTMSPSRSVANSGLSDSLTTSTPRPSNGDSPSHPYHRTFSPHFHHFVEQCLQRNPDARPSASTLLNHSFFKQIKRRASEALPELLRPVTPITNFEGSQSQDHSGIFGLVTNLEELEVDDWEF
# Chain of Serine/threonine-protein kinase WNK4 (Homo sapiens) (Q96J92 whole entry): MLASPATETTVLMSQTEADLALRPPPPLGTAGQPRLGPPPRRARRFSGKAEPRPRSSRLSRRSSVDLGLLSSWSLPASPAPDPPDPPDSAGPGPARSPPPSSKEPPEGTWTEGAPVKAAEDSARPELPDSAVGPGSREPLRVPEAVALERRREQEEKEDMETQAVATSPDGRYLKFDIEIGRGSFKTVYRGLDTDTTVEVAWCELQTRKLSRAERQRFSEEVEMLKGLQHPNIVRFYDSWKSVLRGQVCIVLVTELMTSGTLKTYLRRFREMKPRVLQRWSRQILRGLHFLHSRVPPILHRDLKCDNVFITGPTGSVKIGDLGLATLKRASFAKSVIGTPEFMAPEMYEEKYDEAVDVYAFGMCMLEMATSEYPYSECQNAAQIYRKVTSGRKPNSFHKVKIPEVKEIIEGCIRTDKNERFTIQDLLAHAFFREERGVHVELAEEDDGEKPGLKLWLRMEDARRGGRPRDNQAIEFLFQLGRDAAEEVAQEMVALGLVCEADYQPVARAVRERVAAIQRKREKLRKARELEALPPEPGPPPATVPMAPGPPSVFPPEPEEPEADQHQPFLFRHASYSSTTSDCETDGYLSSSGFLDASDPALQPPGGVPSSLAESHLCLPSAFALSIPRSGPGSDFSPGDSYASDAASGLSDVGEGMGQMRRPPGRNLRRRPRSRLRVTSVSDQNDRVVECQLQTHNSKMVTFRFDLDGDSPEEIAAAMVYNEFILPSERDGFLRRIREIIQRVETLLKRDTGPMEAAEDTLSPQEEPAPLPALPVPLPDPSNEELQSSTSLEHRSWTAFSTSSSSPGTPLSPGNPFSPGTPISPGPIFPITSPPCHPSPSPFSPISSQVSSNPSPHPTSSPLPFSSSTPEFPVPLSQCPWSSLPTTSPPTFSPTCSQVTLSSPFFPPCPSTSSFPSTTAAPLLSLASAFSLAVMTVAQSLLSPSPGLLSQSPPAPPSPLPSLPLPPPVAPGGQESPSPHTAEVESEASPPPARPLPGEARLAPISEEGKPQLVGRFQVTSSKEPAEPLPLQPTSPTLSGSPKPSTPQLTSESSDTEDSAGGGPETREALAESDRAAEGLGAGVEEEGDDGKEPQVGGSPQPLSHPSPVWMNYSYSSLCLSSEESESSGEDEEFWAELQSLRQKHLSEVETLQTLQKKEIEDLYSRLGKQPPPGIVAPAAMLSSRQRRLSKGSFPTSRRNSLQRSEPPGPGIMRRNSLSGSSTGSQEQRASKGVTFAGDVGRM
# Chain of Mitogen-activated protein kinase 3 (Homo sapiens) (P27361 whole entry): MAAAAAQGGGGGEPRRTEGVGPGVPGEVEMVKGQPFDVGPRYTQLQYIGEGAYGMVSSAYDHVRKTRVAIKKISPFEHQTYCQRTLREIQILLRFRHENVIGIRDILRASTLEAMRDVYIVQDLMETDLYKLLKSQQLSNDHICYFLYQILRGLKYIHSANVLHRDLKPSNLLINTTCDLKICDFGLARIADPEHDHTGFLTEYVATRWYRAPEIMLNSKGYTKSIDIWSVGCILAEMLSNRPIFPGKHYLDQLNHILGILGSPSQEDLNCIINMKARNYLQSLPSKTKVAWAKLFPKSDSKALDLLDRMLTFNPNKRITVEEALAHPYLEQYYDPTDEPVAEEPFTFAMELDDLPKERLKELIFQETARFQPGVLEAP
# Chain of Serine/threonine-protein kinase Nek8 (Homo sapiens) (Q86SG6 whole entry): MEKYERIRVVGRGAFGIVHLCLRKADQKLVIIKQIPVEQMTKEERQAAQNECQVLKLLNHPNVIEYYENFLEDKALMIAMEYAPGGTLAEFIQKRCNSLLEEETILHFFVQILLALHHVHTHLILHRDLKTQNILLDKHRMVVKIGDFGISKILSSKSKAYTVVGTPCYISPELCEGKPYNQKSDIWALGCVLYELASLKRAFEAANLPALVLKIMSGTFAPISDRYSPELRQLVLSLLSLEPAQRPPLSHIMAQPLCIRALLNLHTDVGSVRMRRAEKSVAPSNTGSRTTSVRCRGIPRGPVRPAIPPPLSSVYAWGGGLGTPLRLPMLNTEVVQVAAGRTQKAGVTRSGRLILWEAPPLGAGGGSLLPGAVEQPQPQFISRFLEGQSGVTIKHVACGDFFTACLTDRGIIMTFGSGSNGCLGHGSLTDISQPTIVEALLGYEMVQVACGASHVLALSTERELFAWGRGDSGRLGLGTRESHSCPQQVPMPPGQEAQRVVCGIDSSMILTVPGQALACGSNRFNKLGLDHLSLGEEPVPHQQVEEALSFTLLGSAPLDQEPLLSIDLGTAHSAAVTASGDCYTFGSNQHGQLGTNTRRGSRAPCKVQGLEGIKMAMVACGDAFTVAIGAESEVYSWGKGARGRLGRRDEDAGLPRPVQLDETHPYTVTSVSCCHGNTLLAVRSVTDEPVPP
# Chain of Calcium/calmodulin-dependent protein kinase type II subunit alpha (Homo sapiens) (Q9UQM7 whole entry): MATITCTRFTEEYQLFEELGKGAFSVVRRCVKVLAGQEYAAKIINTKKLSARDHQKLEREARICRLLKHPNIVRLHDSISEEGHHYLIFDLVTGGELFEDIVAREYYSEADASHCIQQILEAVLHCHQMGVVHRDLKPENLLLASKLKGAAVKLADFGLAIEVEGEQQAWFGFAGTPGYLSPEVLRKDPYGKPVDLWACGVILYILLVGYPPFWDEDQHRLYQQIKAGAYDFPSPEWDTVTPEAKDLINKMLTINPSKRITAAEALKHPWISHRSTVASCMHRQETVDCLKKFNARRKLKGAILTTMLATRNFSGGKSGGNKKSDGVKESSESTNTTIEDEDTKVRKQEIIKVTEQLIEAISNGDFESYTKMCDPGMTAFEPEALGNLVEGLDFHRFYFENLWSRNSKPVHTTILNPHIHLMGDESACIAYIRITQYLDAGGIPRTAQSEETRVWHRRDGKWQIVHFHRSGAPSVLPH
# Chain of Serine/threonine-protein kinase Nek9 (Homo sapiens) (Q8TD19 whole entry): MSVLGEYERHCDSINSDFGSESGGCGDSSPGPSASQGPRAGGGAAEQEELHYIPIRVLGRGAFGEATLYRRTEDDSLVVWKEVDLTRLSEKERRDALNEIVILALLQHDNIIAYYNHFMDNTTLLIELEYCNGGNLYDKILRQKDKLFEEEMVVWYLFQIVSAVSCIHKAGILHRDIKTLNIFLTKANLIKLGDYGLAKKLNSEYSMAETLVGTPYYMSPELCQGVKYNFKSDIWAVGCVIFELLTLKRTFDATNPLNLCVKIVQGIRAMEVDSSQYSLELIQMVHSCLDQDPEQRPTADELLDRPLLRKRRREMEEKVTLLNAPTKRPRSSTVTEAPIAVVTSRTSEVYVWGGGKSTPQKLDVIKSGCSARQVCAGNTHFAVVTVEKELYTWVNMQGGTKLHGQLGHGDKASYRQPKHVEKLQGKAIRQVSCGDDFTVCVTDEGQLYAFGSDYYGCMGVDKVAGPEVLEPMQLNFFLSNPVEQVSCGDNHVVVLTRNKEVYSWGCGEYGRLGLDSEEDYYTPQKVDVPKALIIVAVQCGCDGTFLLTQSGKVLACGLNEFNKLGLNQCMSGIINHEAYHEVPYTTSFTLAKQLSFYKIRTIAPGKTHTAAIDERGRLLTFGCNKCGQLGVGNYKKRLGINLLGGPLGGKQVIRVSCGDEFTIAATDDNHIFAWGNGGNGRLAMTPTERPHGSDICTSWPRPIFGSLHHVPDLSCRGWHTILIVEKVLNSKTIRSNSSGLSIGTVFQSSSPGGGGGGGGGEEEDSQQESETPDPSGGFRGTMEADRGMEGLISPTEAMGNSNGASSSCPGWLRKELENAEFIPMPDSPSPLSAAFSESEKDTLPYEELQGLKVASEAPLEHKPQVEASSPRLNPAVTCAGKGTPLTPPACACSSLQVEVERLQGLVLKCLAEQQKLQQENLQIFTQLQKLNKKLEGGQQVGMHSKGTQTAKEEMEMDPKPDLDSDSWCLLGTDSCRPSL
# Chain of Phosphatidylinositol 3-kinase catalytic subunit type 3 (Homo sapiens) (Q8NEB9 whole entry): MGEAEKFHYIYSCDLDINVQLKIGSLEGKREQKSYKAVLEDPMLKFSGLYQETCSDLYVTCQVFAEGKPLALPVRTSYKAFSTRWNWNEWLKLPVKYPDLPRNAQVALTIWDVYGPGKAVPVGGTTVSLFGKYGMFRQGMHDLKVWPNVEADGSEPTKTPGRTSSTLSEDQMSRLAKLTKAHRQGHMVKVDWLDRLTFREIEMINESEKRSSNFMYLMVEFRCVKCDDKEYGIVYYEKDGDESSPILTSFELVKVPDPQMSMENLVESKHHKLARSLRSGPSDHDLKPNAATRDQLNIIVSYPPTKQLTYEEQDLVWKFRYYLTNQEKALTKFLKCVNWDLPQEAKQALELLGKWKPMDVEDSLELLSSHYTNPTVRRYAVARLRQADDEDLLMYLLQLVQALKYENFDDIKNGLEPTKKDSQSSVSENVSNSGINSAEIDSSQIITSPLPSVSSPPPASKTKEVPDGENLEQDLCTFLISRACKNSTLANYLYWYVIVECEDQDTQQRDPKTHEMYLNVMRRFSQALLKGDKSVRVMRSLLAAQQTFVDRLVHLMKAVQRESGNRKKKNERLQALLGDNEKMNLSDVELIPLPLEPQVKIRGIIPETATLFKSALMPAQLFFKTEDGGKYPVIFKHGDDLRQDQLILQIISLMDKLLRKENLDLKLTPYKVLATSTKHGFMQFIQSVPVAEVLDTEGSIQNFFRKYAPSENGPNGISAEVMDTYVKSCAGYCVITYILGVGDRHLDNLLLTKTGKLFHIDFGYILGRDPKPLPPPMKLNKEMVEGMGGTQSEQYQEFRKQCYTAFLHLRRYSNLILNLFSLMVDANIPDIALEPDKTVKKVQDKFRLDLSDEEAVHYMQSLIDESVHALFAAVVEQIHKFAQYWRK
smiles,measurement,setting,value
CC(C)n1cc(-c2cc(-c3ccc(CN4CCOCC4)cc3)cnc2N)nn1,inhibition,[1],-0.4%
same,inhibition,[2],4.2%
same,inhibition,[3],5%
same,inhibition,[4],48.5%
same,inhibition,[5],25.5%
same,inhibition,[6],2.8%
same,inhibition,[7],21.9%
same,inhibition,[8],-1.8%
same,inhibition,[9],15.9%
same,inhibition,[10],0.2%
same,inhibition,[11],26.2%
